Patent US20240327364A1, “THERAPEUTIC TARGETING OF GPR68 TO INDUCE FERROPTOSIS” (University Of Maryland, Baltimore, priority 2023, published 2024)

Legend:
[1] = system: zebrafish embryo; assay: Zebrafish embryo phenotype; assay type: in vivo; details: 10 uM
Protocol: A chemical screen for small molecules that perturb embryonic development (dorsoventral axis) in zebrafish was performed as previously described (see Chen et al., 2009; Hao et al., 2013; Williams et al., 2015; Yu et al., 2008)). Briefly, pairs of WT zebrafish were mated, and fertilized eggs were arrayed in 96-well microtiter plates (5 embryos/well) containing […] E3 water. At 4 hours post fertilization (pf), a small molecule library from Vanderbilt High Throughput Screening Facility was added to each well to a final concentration of 10 μM. Embryos were incubated at 28.5 C until 24 and 48 hours pf, when they were examined for gross morphologic changes indicative of reproducible embryonic defects (dorsalization of the embryonic axis). A total of 30,000 compounds were screened. To discover novel small molecule modulators of embryonic development an unbiased screen of ˜30,000 small molecules was conducted, in which the compounds were assayed for their ability to induce phenotypic changes in the morphology of zebrafish. Further information on these assays can be found in Hao et al., 2013 and Williams et al., 2015. […] This compound was identified based on the phenotype of aberrant pigmentation. Compare FIG. 2B and FIG. 2C, which show a dorsal view of a representative DMSO vehicle control-treated zebrafish embryo at 48 hours pf and a dorsal view of a representative OGM1 (10 uM)-treated zebrafish embryo at 48 hours pf. […] Since GPCRs represent >30% of targets for FDA-approved small molecules and are known to modulate cell migration, activity against 158 GPCRs was assessed based on their chemical structures. GPCRs (158) were tested for agonist and antagonist activity at 10 μM. […] Chemical segregation analysis of zebrafish phenotype was conducted to further identify the inhibitory activity responsible for the zebrafish phenotype. […] The identities of the R groups in Formula A are shown below in Table 5.

[2] = target: T1, ABL1-nonphosphorylated (Homo sapiens, UniProt P00519); assay: KinomeScan; assay type: binding; details: read-out: % Control
T1 construct: purchased DiscoveRx

[3] = target: T2, BTK (Homo sapiens, UniProt Q06187); assay: KinomeScan; assay type: binding; details: read-out: % Control
T2 construct: purchased DiscoveRx (KinomeScan service)

[4] = target: T3, CAMK2A (Homo sapiens, UniProt Q9UQM7); assay: KinomeScan; assay type: binding; details: read-out: % Control
T3 construct: purchased DiscoveRx (KinomeScan service)

[5] = target: T4, CDK11 (Homo sapiens, UniProt Q9BWU1); assay: KinomeScan; assay type: binding; details: read-out: % Control
T4 construct: purchased DiscoveRx (KinomeScan service)

[6] = target: T5, CDK3 (Homo sapiens, UniProt Q00526); assay: KinomeScan; assay type: binding; details: read-out: % Control
T5 construct: purchased DiscoveRx (KinomeScan service)

[7] = target: CTK (Homo sapiens, UniProt P42679); assay: KinomeScan; assay type: binding; details: read-out: % Control
[8] = target: T6, NEK9 (Homo sapiens, UniProt Q8TD19); assay: KinomeScan; assay type: binding; details: read-out: % Control
T6 construct: purchased DiscoveRx

[9] = target: T7, RSK4(Kin.Dom.2-C-terminal) (Homo sapiens, UniProt Q9UK32); assay: KinomeScan; assay type: binding; details: read-out: % Control
T7 construct: RSK4(Kin.Dom.2-C-terminal); purchased DiscoveRx (Fremont, CA)

[10] = target: T8, STK35 (Homo sapiens, UniProt Q8TDR2); assay: KinomeScan; assay type: binding; details: read-out: % Control
T8 construct: purchased DiscoveRx (Fremont, CA)

[11] = target: T9, TEC (Homo sapiens, UniProt P42680); assay: KinomeScan; assay type: binding; details: read-out: % Control
T9 construct: purchased DiscoveRx (Fremont, CA)

[12] = target: T10, TRKC (Homo sapiens, UniProt Q16288); assay: KinomeScan; assay type: binding; details: read-out: % Control
T10 construct: purchased DiscoveRx (Fremont, CA)

[13] = target: T11, CB2 (Homo sapiens, UniProt P34972); assay: GPCR Profiler; assay type: cell-based
T11 construct: host or cells: Chem-1 cells with promiscuous Gα15

[14] = target: T12, EP1 (Homo sapiens, UniProt P34995); assay: GPCR Profiler; assay type: cell-based
T12 construct: host or cells: Chem-1 cells expressing Gα15

[15] = target: T13, EP2 (Homo sapiens, UniProt P43116); assay: GPCR Profiler; assay type: cell-based
T13 construct: host or cells: Chem-1 cells expressing Gα15

[16] = target: T14, VPAC2 (Homo sapiens, UniProt P41587); assay: GPCR Profiler; assay type: cell-based
T14 construct: host or cells: Chem-1 cells expressing Galpha15

[17] = target: GPR68 (Homo sapiens, UniProt Q15743); assay: GPCR Profiler; assay type: cell-based; design: host or cells: Chem-1 cells (Chem1-OGR1)
[18] = system: A549; assay: Acid-induced Mucin-5AC production; assay type: cell-based, human; details: pH 6.4 buffered media, 24 hours
Protocol: Lung (A549) cells were plated in 6-well plates. The cells then were rinsed and protein was isolated. Dot blots were made with anti Mucin-5AC antibodies, and an equivalent amount of protein was run on a western blot to detect alpha tubulin. Lung (A549) cells were cultured as above, but in pH 6.4 buffered media with increasing concentrations of OGM2. Mucin5AC and alpha tubulin were detected in the same way.
In addition. A549 cells were cultured in pH 6.4 medium with or without OGM2 for 24 hours cells were then rinsed and then stained with Periodic Acid Staining solution which detects mucins. FIG. 30E is a schematic of cas9 mediated endogenous tagging of MU5AC genetic locus with nano-luciferase in A549 cells. For FIG. 30F, Muc5ac-Luc cells were cultured in pH 6.4 buffered medium with and without OGM2 for 24 hours. Cell lysates were then assayed for luciferase activity and normalized to untreated control. See results in FIG. 30F.

T13 sequence (P43116 whole entry): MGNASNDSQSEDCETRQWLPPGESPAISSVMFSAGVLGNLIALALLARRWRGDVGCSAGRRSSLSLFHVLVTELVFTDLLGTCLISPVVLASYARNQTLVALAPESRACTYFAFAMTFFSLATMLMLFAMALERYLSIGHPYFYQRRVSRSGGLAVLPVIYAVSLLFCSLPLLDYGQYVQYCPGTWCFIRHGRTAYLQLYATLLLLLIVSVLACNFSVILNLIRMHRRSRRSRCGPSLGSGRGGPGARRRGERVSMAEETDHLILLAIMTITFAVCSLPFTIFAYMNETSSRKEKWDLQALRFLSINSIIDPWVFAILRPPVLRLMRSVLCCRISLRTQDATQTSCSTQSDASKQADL
T14 sequence (P41587 24-438): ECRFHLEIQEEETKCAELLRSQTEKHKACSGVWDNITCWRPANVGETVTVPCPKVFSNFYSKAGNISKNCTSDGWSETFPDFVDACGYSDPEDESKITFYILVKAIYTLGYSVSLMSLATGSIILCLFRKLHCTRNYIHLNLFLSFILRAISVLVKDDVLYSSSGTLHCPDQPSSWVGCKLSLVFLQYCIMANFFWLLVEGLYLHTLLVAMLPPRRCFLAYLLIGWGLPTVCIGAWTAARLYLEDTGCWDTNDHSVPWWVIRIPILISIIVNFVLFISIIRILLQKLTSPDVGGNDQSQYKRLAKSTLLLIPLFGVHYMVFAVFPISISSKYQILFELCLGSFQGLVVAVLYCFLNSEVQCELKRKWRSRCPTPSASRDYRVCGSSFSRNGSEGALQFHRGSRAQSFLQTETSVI
T12 sequence (P34995 whole entry): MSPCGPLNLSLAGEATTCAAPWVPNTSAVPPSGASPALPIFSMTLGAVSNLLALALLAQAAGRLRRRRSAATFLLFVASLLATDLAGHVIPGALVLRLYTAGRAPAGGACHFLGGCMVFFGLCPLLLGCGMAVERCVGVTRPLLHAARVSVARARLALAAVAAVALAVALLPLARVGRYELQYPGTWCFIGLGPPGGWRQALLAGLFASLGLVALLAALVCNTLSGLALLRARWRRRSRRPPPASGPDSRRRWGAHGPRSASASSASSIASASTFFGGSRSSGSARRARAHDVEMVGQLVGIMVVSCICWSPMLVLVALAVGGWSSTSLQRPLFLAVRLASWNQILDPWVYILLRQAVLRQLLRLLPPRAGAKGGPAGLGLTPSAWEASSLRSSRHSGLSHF
GPR68, sequence (Q15743 whole entry): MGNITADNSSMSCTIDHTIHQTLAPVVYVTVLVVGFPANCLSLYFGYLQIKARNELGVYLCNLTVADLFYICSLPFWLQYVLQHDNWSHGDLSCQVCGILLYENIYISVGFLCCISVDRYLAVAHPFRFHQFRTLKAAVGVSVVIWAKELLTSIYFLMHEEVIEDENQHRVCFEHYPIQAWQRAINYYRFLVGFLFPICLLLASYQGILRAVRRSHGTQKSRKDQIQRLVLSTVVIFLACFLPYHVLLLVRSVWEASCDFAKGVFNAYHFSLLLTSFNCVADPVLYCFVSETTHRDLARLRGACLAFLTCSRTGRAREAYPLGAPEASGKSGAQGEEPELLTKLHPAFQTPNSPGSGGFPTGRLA
T11 sequence (P34972 whole entry, species assumed): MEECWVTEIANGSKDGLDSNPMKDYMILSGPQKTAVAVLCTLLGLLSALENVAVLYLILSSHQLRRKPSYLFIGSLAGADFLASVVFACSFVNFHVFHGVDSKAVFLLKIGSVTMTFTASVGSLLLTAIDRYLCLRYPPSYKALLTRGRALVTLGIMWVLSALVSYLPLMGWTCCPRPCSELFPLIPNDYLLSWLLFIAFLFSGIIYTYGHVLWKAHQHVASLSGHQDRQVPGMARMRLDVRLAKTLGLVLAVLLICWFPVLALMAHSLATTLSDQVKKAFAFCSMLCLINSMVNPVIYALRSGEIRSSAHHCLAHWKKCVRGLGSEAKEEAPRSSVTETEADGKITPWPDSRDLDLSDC
T10 sequence (Q16288 32-839): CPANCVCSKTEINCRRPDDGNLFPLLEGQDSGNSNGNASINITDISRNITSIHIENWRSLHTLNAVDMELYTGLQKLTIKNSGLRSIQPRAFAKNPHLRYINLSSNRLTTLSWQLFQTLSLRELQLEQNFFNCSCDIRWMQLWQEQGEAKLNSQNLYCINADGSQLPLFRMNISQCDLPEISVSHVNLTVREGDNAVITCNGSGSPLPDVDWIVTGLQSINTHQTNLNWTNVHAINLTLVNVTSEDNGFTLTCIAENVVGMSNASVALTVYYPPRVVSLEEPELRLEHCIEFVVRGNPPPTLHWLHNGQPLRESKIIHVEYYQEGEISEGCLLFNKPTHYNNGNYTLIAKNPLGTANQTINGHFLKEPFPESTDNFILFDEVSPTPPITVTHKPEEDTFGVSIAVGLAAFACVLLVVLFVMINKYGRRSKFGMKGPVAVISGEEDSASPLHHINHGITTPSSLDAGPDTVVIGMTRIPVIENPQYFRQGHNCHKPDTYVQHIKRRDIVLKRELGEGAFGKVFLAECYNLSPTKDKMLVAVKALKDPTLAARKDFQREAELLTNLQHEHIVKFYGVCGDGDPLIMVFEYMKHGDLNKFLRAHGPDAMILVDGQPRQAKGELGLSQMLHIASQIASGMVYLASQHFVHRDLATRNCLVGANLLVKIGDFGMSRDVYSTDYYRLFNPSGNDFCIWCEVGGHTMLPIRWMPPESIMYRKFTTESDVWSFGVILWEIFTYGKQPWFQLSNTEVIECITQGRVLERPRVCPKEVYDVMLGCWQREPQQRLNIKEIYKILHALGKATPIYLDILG
T1 sequence (P00519 242-493 limits assumed): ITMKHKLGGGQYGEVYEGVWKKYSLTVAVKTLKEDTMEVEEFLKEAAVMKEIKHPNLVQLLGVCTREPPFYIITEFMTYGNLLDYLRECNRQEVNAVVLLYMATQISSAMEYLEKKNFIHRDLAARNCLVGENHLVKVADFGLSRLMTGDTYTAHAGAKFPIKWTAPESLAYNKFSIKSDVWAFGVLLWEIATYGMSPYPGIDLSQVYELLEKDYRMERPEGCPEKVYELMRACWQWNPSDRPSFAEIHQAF
T2 sequence (Q06187 whole entry): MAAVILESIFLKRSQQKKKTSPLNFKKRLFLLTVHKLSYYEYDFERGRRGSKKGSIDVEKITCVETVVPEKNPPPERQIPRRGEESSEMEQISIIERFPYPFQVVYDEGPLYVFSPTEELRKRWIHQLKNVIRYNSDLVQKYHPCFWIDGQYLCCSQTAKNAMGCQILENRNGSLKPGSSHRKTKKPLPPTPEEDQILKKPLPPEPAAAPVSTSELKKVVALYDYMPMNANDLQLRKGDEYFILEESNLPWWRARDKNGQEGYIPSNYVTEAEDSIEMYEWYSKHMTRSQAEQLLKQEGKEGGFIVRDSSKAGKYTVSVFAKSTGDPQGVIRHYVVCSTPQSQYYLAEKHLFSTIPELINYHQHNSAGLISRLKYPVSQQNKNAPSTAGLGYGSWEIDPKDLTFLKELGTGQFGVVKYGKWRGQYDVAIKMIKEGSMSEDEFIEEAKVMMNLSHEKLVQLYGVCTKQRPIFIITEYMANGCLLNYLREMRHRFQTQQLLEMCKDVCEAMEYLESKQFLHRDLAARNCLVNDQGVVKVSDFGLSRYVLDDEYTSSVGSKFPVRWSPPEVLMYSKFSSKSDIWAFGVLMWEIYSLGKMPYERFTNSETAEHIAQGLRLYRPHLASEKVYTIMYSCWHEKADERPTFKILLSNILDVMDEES
CTK, sequence (P42679 whole entry): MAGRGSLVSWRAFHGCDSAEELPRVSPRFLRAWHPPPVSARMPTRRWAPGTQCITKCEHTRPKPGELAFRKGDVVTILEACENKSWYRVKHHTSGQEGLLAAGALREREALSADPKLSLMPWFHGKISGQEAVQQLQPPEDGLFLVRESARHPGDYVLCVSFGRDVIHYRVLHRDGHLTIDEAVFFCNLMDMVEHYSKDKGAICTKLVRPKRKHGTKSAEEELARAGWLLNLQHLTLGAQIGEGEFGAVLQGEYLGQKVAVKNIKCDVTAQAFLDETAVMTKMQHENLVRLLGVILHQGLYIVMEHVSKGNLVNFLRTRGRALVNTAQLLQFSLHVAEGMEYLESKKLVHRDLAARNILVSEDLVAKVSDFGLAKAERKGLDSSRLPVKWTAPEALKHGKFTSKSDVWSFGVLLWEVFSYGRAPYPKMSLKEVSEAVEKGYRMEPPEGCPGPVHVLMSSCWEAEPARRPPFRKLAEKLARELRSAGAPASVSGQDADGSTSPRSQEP
T8 sequence (Q8TDR2 whole entry): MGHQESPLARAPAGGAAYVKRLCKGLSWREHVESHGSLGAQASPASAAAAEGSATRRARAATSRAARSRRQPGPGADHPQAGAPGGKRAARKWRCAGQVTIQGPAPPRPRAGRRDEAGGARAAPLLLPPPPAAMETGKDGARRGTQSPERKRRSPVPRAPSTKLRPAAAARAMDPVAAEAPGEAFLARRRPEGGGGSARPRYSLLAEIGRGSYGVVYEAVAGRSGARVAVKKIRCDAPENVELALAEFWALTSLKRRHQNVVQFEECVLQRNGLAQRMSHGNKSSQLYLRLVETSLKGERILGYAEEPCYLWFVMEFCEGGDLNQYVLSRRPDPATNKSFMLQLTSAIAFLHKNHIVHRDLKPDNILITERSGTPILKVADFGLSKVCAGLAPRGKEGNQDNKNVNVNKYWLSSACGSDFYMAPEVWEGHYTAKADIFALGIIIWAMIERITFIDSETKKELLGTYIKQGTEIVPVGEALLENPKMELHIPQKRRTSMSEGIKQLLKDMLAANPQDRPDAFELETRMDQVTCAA
T5 sequence (Q00526 whole entry): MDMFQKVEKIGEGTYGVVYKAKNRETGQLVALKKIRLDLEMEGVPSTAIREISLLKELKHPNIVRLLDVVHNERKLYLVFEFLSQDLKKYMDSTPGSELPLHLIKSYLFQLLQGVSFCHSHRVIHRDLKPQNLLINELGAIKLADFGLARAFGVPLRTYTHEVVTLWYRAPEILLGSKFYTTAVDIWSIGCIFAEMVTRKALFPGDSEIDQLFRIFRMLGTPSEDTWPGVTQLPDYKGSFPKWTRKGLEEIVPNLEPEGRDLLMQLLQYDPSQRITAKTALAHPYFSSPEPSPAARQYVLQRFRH

Structure (SMILES): CCc1ccc2c(c1)C1(NN=C(c3cccc4ccccc34)S1)C(=O)N2 (centres unmarked) [OGM1, 5-ethyl-5′-naphthalen-1-ylspiro[1H-indole-3,2′-3H-1,3,4-thiadiazole]-2-one]
- phenotypes induced [1]: reproducibly induced ventral curvature, wavy notochord, shortened body axis, craniofacial defects, and loss of retinal iridophores
- remaining binding at 10 µM [2]: 100%
- remaining binding at 10 µM [3]: 88%
- remaining binding at 10 µM [4]: 75%
- remaining binding at 10 µM [5]: 100%
- remaining binding at 10 µM [6]: 81%
- remaining binding at 10 µM [7]: 100%
- remaining binding at 10 µM [8]: 100%
- remaining binding at 10 µM [9]: 41%
- remaining binding at 10 µM [10]: 100%
- remaining binding at 10 µM [11]: 93%
- remaining binding at 10 µM [12]: 62%
- Antagonism ([13]; 10 uM): −13.8
- Agonism ([13]; 12.5 uM): −2.4
- Antagonism ([14]; 10 uM): −6
- Agonism ([14]; 12.5 uM): 0.2
- Antagonism ([15]; 10 uM): 7
- Agonism ([15]; 12.5 uM): −0.2
- Antagonism ([16]; 10 uM): 6.9
- Agonism ([16]; 12.5 uM): 10.7
- Antagonism ([17]; 10 uM): 70.8
- Agonism ([17]; 12.5 uM): −7.6

Structure (SMILES): CCc1ccc2c(c1)C1(NN=C(c3ccccc3)S1)C(=O)N2 (centres unmarked) [OGM2]
- Mucin production [18]: inhibits Mucin production
